Measured values from paper PMC5511861, “DS16570511 is a small-molecule inhibitor of the mitochondrial calcium uniporter” (Cell Death Discovery, 2017).

What was measured:
[1] = tested on: Ca2+ uptake of rat heart mitochondria; assay: Ca2+ uptake assay using isolated rat heart mitochondria (atomic absorbance spectrometer); type: biochemical; settings: 100 μM CaCl2; read-out: IC50, inhibition of Ca2+ uptake of rat heart mitochondria
Protocol: We then asked whether DS16570511 inhibits Ca^2+ uptake in isolated mitochondria from animal heart. An atomic absorbance spectrometer-based detection method was employed to analyze intramitochondrial Ca^2+ levels. We prepared freshly isolated mitochondria from pig heart, and the mitochondria were incubated with 100 μM CaCl2.
Figure 3 DS16570511 inhibits Ca^2+ uptake in isolated heart mitochondria. (a) Effect of RuR on Ca^2+ uptake of pig heart mitochondria. […] Data are mean with S.E.M. from three independent samples. (b) Inhibition rate of RuR or DS16570511 on Ca^2+ uptake of pig heart mitochondria. Inhibition 0 or 100% is defined as a value of Ca^2+-untreated mitochondria or Ca^2+-treated mitochondria, respectively. Data are mean with S.E.M. from three independent samples. (c) Inhibition rate of RuR or DS16570511 on Ca^2+ uptake of rat heart mitochondria. Data are mean with S.E.M./variation from three or two independent samples for DS16570511 or RuR, respectively.
Mitochondria were isolated by using the mitochondria isolation kit and then dissolved in the swelling buffer. The protein concentration of the mitochondrial solution was 5 mg/ml. […] The solution was then diluted by water, and Ca^2+ concentration of the solution was measured by atomic absorbance spectrometer (Hitachi High-Technologies Corporation, Z-2710, Tokyo, Japan).

[2] = tested on: membrane potential of pig heart mitochondria; assay: Mitochondrial membrane potential assay (JC-10) in pig heart mitochondria; type: biochemical; settings: JC-10, 5 min incubation
From the text: Next we analyzed the mechanism of action of DS16570511. The previous studies implicated two possible inhibitory mechanisms for the mitochondrial Ca^2+ uptake: (1) direct blockade of the calcium uniporter and (2) disruption of the membrane potential.[20],[21] Mitochondrial Ca^2+ uptake is mediated by electrical potential across the mitochondrial inner membrane, which is generated by the oxidative phosphorylation system. […] To examine effects on the mitochondrial membrane potential, fluorescent indicator JC-10 was used in mitochondria from pig heart.
(a) Effect of FCCP on Ca^2+ uptake of pig heart mitochondria. […] Relative membrane potential 0 or 100% is defined as value of 1 μM FCCP-treated mitochondria or vehicle-treated mitochondria, respectively. Data are mean with S.E.M. from three (a) or four (b) independent samples.
Pig heart mitochondria were prepared as described above and suspended in the swelling buffer containing 1 μM JC-10. The protein concentration of the solution was 5 mg/ml. Five minutes after incubation of the mitochondria with DS16570511 at room temperature, fluorescence intensities were measured by a FlexStation 3 (Molecular Devices, LLC, Sunnyvale, CA, USA) using the green channel (excitation/emission wavelength: 485/538 nm) or the red channel (excitation/emission wavelength: 485/612 nm).

[3] = target: T1, MICU1 (Homo sapiens, UniProt Q9BPX6); assay: MICU1-dependent mitochondrial Ca2+ influx in HEK293A cells overexpressing human MICU1; type: cell-based; settings: HEK293A cells overexpressing MICU1, serum-induced
T1 construct: expressed in transfected cells; host or cells: HEK293A cells, transient co-transfection with the mitochondria-targeted aequorin vector
T1 sequence (Q9BPX6 34-476): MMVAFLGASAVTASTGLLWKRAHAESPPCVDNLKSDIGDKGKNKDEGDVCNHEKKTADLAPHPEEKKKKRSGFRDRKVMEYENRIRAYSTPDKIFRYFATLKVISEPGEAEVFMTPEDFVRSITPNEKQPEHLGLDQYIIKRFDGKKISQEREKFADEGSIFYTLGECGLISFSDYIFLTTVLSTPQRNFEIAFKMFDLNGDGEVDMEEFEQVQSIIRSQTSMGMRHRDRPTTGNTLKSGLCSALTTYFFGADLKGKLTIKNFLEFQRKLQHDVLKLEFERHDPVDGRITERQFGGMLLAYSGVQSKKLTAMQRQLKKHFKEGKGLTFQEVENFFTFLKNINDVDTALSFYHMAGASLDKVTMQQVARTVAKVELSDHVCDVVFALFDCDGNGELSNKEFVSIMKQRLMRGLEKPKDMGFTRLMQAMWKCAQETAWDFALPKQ
From the text: Next, to investigate the molecular component of the mitochondrial calcium uniporter, MCU-dependent and MICU-dependent Ca^2+ influx were examined. […] The MCU-dependent increment of Ca^2+ influx was blocked by the DS16570511 pretreatment (Figure 5b). We then investigated the effects of the inhibitor on the regulatory subunit MICU1. Previous studies have shown that MICU1 facilitates mitochondrial Ca^2+ uptake through the presence of a high Ca^2+ level.[11],[22]
Figure 5 DS16570511 inhibits mitochondrial Ca^2+ influx by MCU or MICU1. (a) Effect of overexpression of MCU or MICU1 on mitochondrial Ca^2+ influx in HEK293A cells. (b) Effect of DS16570511 on MCU-dependent mitochondrial Ca^2+ uptake in HEK293A cells. (c) Effect of DS16570511 on MICU1-dependent mitochondrial Ca^2+ uptake in HEK293A cells. […]
In order to evaluate mitochondrial Ca^2+ uptake activity by MCU or MICU1, HEK293A cells were transiently transfected with the mitochondria-targeted aequorin vector and pcDNA3.1 vector containing human Mcu (NCBI Reference Sequence: NM_138357.2) or Micu1 (NM_001195518.1). One day after the transfection, the luminescence levels were measured as described above. MCU- or MICU1-dependent activity was calculated by subtracting the luminescence level of cells transfected with empty vector from that of cells expressing MCU or MICU1, respectively.

In the case of `Cc1onc(-c2c(Cl)cccc2Cl)c1CNc1cccc(C(=O)c2cn(CCCC(=O)O)c3ccccc23)c1` [DS16570511], the IC50 [1] is reported as 25 µM, the “effect on mitochondrial membrane potential” value [2] is reported as “not reduced” and the “effect on MICU1-dependent activation of the uniporter” value [3] is reported as “blocked by DS16570511 in a dose-dependent manner”.
